The values that follow come from patent US20250144109A1, “Compositions for preventing or treating pulmonary arterial hypertension” (CHONG KUN DANG PHARMACEUTICAL CORP., priority 2022, published 2025).

The subject of one test is HPAEC cells. Put plainly: Cell viability (CCK-8) of TGF-β stimulated HPAEC cells. The class given is cell-based, Human. The conditions noted are these: 1 μM drug with TGF-β 10 ng/ml, 48 hours, vs TGF-β only, FIG. 2. On the procedure: TGF-β stimulation to HPAEC cells, which are a model of pulmonary arterial hypertension disease, and the survival rate according to the compounds of Synthesis Examples 1 to 6 were confirmed through cell viability measurement.
HPAEC (2.0×10^3 cells/well) cells were seeded in 96-well plate, and cultured for 24 hours in a serum free medium as starvation. 1 μM concentration of drugs (compounds 43, 295, 296, 40, 239, 285) were simultaneously treated with TGF-β (10 ng/ml) and cultured for 48 hours, after which cell viability was measured through CCK-8 assay, and the results thereof are shown in FIG. 2. In above FIG. 2, a control group indicates cells not treated with TGF-β and the compounds of Synthesis Examples, and “-” indicates cells treated only with TGF-β.

In test [1] the test system is HPASMC (human pulmonary artery smooth muscle) cells. Kind of test: Cell proliferation inhibition (CCK-8) in TGF-β stimulated HPASMC cells. The class given is cell-based. To be noted: 1 μM drug with TGF-β 10 ng/ml, 24 hours, vs TGF-β only, FIG. 3. On the procedure:
TGF-β stimulation to HPASMC (human pulmonary artery smooth muscle) cells, which are a model of pulmonary arterial hypertension disease, and a cell proliferation inhibition rate according to treatment with six compounds of Synthesis Examples 1 to 6 were confirmed through cell viability measurement.
HPASMC (5.0×10^3 cells/well) cells were seeded in 96-well plate, and cultured for 24 hours in a serum free medium as starvation. 1 μM concentration of drugs (compounds 43, 295, 296, 40, 239, 285) were simultaneously treated with TGF-β (10 ng/ml) and cultured for 24 hours, after which cell viability was measured through CCK-8 assay, and the results thereof are shown in FIG. 3. In above FIG. 3, a control group indicates cells not treated with TGF-β and the compounds of Synthesis Examples, and “-” indicates cells treated only with TGF-β.

Test [2] relates to tubulin acetylation in HPAEC (Human pulmonary artery endothelial cells). Kind of test: Tubulin acetylation in HPAEC by Western blot (anti-acetyl tubulin). The class given is cell-based. The conditions noted are these: 4 hours at 37° C., concentration 0.1μ, FIG. 1. On the procedure:
HPAEC (3.0×10^5 cells/well, Human pulmonary artery endothelial cells) pulmonary artery endothelial cells were seeded in a six-well plate, and then treated with drugs (compounds 43, 295, 296, 40, 239, and 285) at each concentration. In four hours later at 37° C., proteins were extracted with lysis buffer and quantified by Bradford method. 5 μg of proteins were dissolved in sample buffer, subjected to electrophoresis on 4-12% gradient gel, transferred to a nitrocellulose membrane for seven minutes, and blocked in a 3% BSA solution for one hour. Anti-acetyl tubulin (1:1,000) and GAPDH (1:2,000) were added to the 3% BSA solution, after which the membrane was immersed therein and reacted at 4° C. for 10 hours, and then washed three times with 1×TBST for 10 minutes, respectively. IgG-HRP antibody (1:5,000) was added to 5% BSA, after which the membrane was immersed therein and reacted at room temperature for one hour, and then washed three times with 1×TBST for 10 minutes, respectively. In above FIG. 1, a control group indicates cells not treated with the compounds of Synthesis Examples.
Background: In western blotting, separated proteins are transferred to a membrane and probed.

The test system of test [3] is SD rats with monocrotaline (MCT)-induced pulmonary arterial hypertension. Put plainly: MCT-induced pulmonary arterial hypertension animal model (survival, lung and ventricle weights, ECG). The class given is in vivo, rat. The conditions noted are these: 20 mg/kg oral twice a day. Here is the method:
SD rats having the following conditions were prepared.
Rats, experimental animals, were divided into groups as follows in consideration of a body weight on the day before drug administration began.
During a test period, the normal group was dosed with saline, and the control group (MCT+Vehicle) was subcutaneously dosed with a monocrotaline (MCT) aqueous solution once at 3 ml/Kg, and then dosed with a vehicle consisting of a mixed solution of cremophor EL, ethanol, and saline at a volume ratio of 1:1:8. A MCT aqueous solution was prepared to reach a concentration of 20 mg/mL in a solvent adjusted to pH 7.4 using a 1 N NAOH solution in 1 N HCL. After that, subcutaneous administration was performed by adjusting to […].
The drug administration group was first subcutaneously dosed with the MCT aqueous solution at 3 ml/Kg once, and then orally dosed with compound 43 (the compound of Synthesis Example 1) at 20 mg/Kg twice a day during the test period (four weeks). The compound 43 was dissolved in a mixed solution of cremophor EL, ethanol, and saline at a volume ratio of 1:1:8, and then orally administered.
All data were expressed as mean±standard error, and each group and the control group were compared using an unpaired T test (p<0.05) to determine the effect of each experimental group.
After group separation and then administration of the MCT aqueous solution, the survival rate was evaluated by confirming a dead individual during the test period.
The individual survival rate was calculated by reflecting the number of animals surviving in the corresponding week from the first 10 animals participating in the experiment for each group. Each number on the left side of the line graph means an individual survival rate % (number of surviving individuals/total number of animals participating in experiment).
After four weeks of the test period, the lung and the heart were removed to measure the weight of the lung and the weight of left ventricle and right ventricle in each group, and the results are shown in FIGS. 5 and 6.
After four weeks of the test period, the animal was subjected to inhalation anesthesia with isoflurane, and electrodes were attached to the limbs to measure the animal's electrocardiogram for more than 30 seconds. The result was measured using a Bio Amp ECG meter and analysis was performed using LabChart 8 software.

The mark [4] stands for this setting: MCT rats, after four weeks, vs control group.

In the case of `O=C(N1CCS(=O)(=O)CC1)N(Cc1ccc(-c2nnc(C(F)F)o2)cc1F)c1ccccc1` [Compound 40, N-(4-(5-(difluoromethyl)-1,3,4-oxadiazol-2-yl)-2-fluorobenzyl)-N-phenylthiomorpholine-4-carboxamide 1,1-dioxide], the “survival rate (cell viability) after TGF-β stimulation” value (“survival rate (cell viability)” for short) with HPAEC cells is listed as “improved”. Moreover, the “proliferation rate after TGF-β stimulation” value (from here on “proliferation rate”) in test [1] is “inhibited”. For the same compound, the “tubulin acetylation (acetyl tubulin expression level)” value (from here on “tubulin acetylation”) in test [2] was “tubulin acetylation was expressed”.
With `O=C(N1CCS(=O)(=O)CC1)N(Cc1ccc(-c2nnc(C(F)F)o2)cn1)c1ccccc1` [Compound 43, N-((5-(5-(difluoromethyl)-1,3,4-oxadiazol-2-yl)pyridin-2-yl)methyl)-N-phenylthiomorpholine-4-carboxamide 1,1-dioxide], the “survival rate (cell viability)” value in the test with HPAEC cells is recorded as “improved”. For the same compound, in test [1], the “proliferation rate” value is “inhibited”. Besides, in test [2], the “tubulin acetylation” value is “tubulin acetylation was expressed”. Besides, the individual survival rate in test [3] (MCT 50 mg/kg s.c. once, four weeks, vehicle control 50%, FIG. 4) stood at 90%. In addition, in test [3] (setting [4]), the “JT interval (ECG)” value was “significantly reduced”, the “QT interval (ECG)” value was “significantly reduced” and the “QTc (ECG)” value was “significantly reduced”. Also, in test [3] (MCT rats, after four weeks, vs control group, FIG. 6), the “ratio of right ventricle weight to left ventricle weight” value is reported as “significantly reduced”.
With `O=C(N1CCS(=O)(=O)CC1)N(Cc1ccc(-c2nnc(C(F)F)o2)cn1)c1cccc(Cl)c1` [Compound 239, N-(3-chlorophenyl)-N-((5-(5-(difluoromethyl)-1,3,4-oxadiazol-2-yl)pyridin-2-yl)methyl)thiomorpholine-4-carboxamide 1,1-dioxide], the “survival rate (cell viability)” value in the test with HPAEC cells was “improved”. Besides, the “proliferation rate” value in test [1] is “inhibited”. In addition, the “tubulin acetylation” value in test [2] is recorded as “tubulin acetylation was expressed”.
Turning to `O=C(N1CCS(=O)(=O)CC1)N(Cc1ccc(-c2nnc(C(F)F)o2)cc1F)c1ccc(F)cc1` [Compound 285, N-(4-(5-(difluoromethyl)-1,3,4-oxadiazol-2-yl)-2-fluorobenzyl)-N-(4-fluorophenyl)thiomorpholine-4-carboxamide 1,1-dioxide], the “survival rate (cell viability)” value in the test on HPAEC cells was “improved”. Besides, the “proliferation rate” value in test [1] was “inhibited”. In addition, in test [2], the “tubulin acetylation” value is recorded as “tubulin acetylation was expressed”.
In the same order, the values of `O=C(N1CCS(=O)(=O)CC1)N(Cc1ccc(-c2nnc(C(F)F)o2)cn1)c1ccc(F)cc1` [Compound 295, N-((5-(5-(difluoromethyl)-1,3,4-oxadiazol-2-yl)pyridin-2-yl)methyl)-N-(4-fluorophenyl)thiomorpholine-4-carboxamide 1,1-dioxide] are “improved”, “inhibited” and “tubulin acetylation was expressed”.
Taken in the same sequence, the figures for `O=C(N1CCS(=O)(=O)CC1)N(Cc1ccc(-c2nnc(C(F)F)o2)cn1)c1cccc(F)c1` [Compound 296, N-((5-(5-(difluoromethyl)-1,3,4-oxadiazol-2-yl)pyridin-2-yl)methyl)-N-(3-fluorophenyl)thiomorpholine-4-carboxamide 1,1-dioxide] were “improved”, “inhibited” and “tubulin acetylation was expressed”.
